pIC50: −log10 of the molar value.
How the values were obtained:
CDK2-CYCLINA = biological target: T1, CDK2-CYCLINA (Homo sapiens, UniProt P24941); experiment: CDK inhibition assay (microfluidic LabChip, IC50 format); format: biochemical; conditions: Table 4a; read-out: CDK2 CyclinA IC50
T1 construct: purchased Millipore

CDK7 CyclinH = CDK7 CyclinH (Homo sapiens, UniProt P50613); experiment: as above; format: biochemical; conditions: Table 4a
CXF COLO 205 = experiment: 2D cell proliferation assay (CellTiter-Blue); format: cell-based; conditions: Homo sapiens, 72 h, three days of treatment, read-out: abs. IC50
Method: (§1) Viability of the cells was analyzed by using the CellTiter-Blue® Cell Viability Assay (Promega), and was performed according to manufacturer's instructions. Briefly, cells were harvested from exponential phase cultures (Chapter 6.6), counted and plated in 96-well flat-bottom microtiter plates at a cell density of 4,000-60,000 cells/well in a volume of 140 μl per well. After a 24 hours recovery period, 10 μL cell culture medium (six control wells/plate) or culture medium with test compound were added (Chapter 6.2). The compounds were applied at five concentrations in full-log increments up to 100 μM in duplicate. Cultures were incubated at 37° C. and 5% CO2 in a humidified atmosphere for another three days. After three days of treatment, 20 μl/well CellTiter-Blue® reagent was added. Following incubation with CellTiter-Blue® reagent for up to four hours, fluorescence (FU) was measured by using the Enspire Multimode Plate Reader (excitation λ=570 nm, emission λ=600 nm). For calculations, the mean values of duplicate/sextuplicate (untreated control) data were used.
(§2) An assay was considered fully evaluable if the following quality control criteria were fulfilled: • control/background ratio>3.0-Z′-factor calculated within the assay plate>0.5 [7]—coefficient of variation in the growth control wells <30%
(§3) Drug effects were expressed in terms of the percentage of the fluorescence signal, obtained by comparison of the mean signal in the treated wells with the mean signal of the untreated controls (expressed by the test-versus-control value, T/C-value [%]):
(§4) IC values are reported as relative IC50 values and absolute IC50 and IC70 values. […] The absolute IC70 value gives the concentration of the test compound that achieves T/C=30%. The relative IC50 value is the concentration of test compound that gives a response halfway between the top and bottom plateau of the sigmoidal concentration-response curve (inflection point of the curve). Calculation was done by 4parameter non-linear curve fit (Oncotest Data Warehouse Software).
(§5) If an IC50 or IC70 value could not be determined within the examined dose range (because a compound was either too active or lacked activity), the lowest or highest concentration studied was used for calculation of the geometric mean value.

CXF HT-29 = experiment: 2D cell proliferation assay (CellTiter-Blue); format: cell-based; conditions: Homo sapiens, 72 h, three days of treatment, read-out: abs. IC50
Method: as §1, §2, §3, §4, §5

LEXFAM MV4-11 = experiment: 2D cell proliferation assay (CellTiter-Blue); format: cell-based; conditions: Homo sapiens, 72 h, three days of treatment, read-out: abs. IC50
Method: as §1, §2, §3, §4, §5

LEXFCM K-562 = experiment: 2D cell proliferation assay (CellTiter-Blue); format: cell-based; conditions: Homo sapiens, K562, 72 h, three days of treatment, read-out: abs. IC50
Method: as §1, §2, §3, §4, §5

LIXAH SNU-398 = experiment: 2D cell proliferation assay (CellTiter-Blue); format: cell-based; conditions: Homo sapiens, 72 h, three days of treatment, read-out: abs. IC50
Method: as §1, §2, §3, §4, §5

LIXFH HEP-3B = experiment: 2D cell proliferation assay (CellTiter-Blue); format: cell-based; conditions: Homo sapiens, Hep3B, 72 h, three days of treatment, read-out: abs. IC50
Method: as §1, §2, §3, §4, §5

LIXFH Hep G2 = experiment: 2D cell proliferation assay (CellTiter-Blue); format: cell-based; conditions: Homo sapiens, HepG2, 72 h, three days of treatment, read-out: abs. IC50
Method: as §1, §2, §3, §4, §5

LXFA NCl-H1975 = experiment: 2D cell proliferation assay (CellTiter-Blue); format: cell-based; conditions: 72 h, three days of treatment, read-out: abs. IC50
Method: as §1, §2, §3, §4, §5

LXFE Calu-1 = experiment: 2D cell proliferation assay (CellTiter-Blue); format: cell-based; conditions: Homo sapiens, 72 h, three days of treatment, read-out: abs. IC50
Method: as §1, §2, §3, §4, §5

LXFL NCl-H1299 = experiment: 2D cell proliferation assay (CellTiter-Blue); format: cell-based; conditions: 72 h, three days of treatment, read-out: abs. IC50
Method: as §1, §2, §3, §4, §5

MAXFLB T47D (ER+) = experiment: 2D cell proliferation assay (CellTiter-Blue); format: cell-based; conditions: Homo sapiens, 72 h, three days of treatment, read-out: abs. IC50
Method: as §1, §2, §3, §4, §5

MAXFTN BT-549 = experiment: 2D cell proliferation assay (CellTiter-Blue); format: cell-based; conditions: Homo sapiens, 72 h, three days of treatment, read-out: abs. IC50
Method: as §1, §2, §3, §4, §5

MAXFTN MDA-MB-231 (ER−) = experiment: 2D cell proliferation assay (CellTiter-Blue); format: cell-based; conditions: Homo sapiens, 72 h, three days of treatment, read-out: abs. IC50
Method: as §1, §2, §3, §4, §5

MAXFTN MDA-MB-453 = experiment: 2D cell proliferation assay (CellTiter-Blue); format: cell-based; conditions: Homo sapiens, 72 h, three days of treatment, read-out: abs. IC50
Method: as §1, §2, §3, §4, §5

MEXF A-375 = experiment: 2D cell proliferation assay (CellTiter-Blue); format: cell-based; conditions: Homo sapiens, 72 h, three days of treatment, read-out: abs. IC50
Method: as §1, §2, §3, §4, §5

MEXF A2058 = experiment: 2D cell proliferation assay (CellTiter-Blue); format: cell-based; conditions: Homo sapiens, 72 h, three days of treatment, read-out: abs. IC50
Method: as §1, §2, §3, §4, §5

MEXF M14 = experiment: 2D cell proliferation assay (CellTiter-Blue); format: cell-based; conditions: 72 h, three days of treatment, read-out: abs. IC50
Method: as §1, §2, §3, §4, §5

MEXF MDA-MB-435 = experiment: 2D cell proliferation assay (CellTiter-Blue); format: cell-based; conditions: Homo sapiens, 72 h, three days of treatment, read-out: abs. IC50
Method: as §1, §2, §3, §4, §5

MEXF WM-266-4 = experiment: 2D cell proliferation assay (CellTiter-Blue); format: cell-based; conditions: Homo sapiens, 72 h, three days of treatment, read-out: abs. IC50
Method: as §1, §2, §3, §4, §5

OVXF SK-OV-3 = experiment: 2D cell proliferation assay (CellTiter-Blue); format: cell-based; conditions: Homo sapiens, 72 h, three days of treatment, read-out: abs. IC50
Method: as §1, §2, §3, §4, §5

PAXF BxPC-3 = experiment: 2D cell proliferation assay (CellTiter-Blue); format: cell-based; conditions: Homo sapiens, 72 h, three days of treatment, read-out: abs. IC50
Method: as §1, §2, §3, §4, §5

PAXF MIA-Pa-Ca-2 = experiment: 2D cell proliferation assay (CellTiter-Blue); format: cell-based; conditions: Homo sapiens, MIA PaCa-2, 72 h, three days of treatment, read-out: abs. IC50
Method: as §1, §2, §3, §4, §5

PRXF VCap = experiment: 2D cell proliferation assay (CellTiter-Blue); format: cell-based; conditions: Homo sapiens, 72 h, three days of treatment, read-out: abs. IC50
Method: as §1, §2, §3, §4, §5

UXF EFE-184 = experiment: 2D cell proliferation assay (CellTiter-Blue); format: cell-based; conditions: Homo sapiens, 72 h, three days of treatment, read-out: abs. IC50
Method: as §1, §2, §3, §4, §5

all cell lines tested = experiment: 2D cell proliferation assay, geometric mean over the cell line panel; format: cell-based; conditions: Table 5 upper part; geometric mean over the 47-line panel; read-out: Geomean abs. IC50 value
Method: as §1, §4, §5
The overall potency of a compound was determined by the geometric mean IC50/IC70 values of all individual IC50/IC70 values. In the heatmap representation of IC50 and IC70 values, the distribution of the IC50 or IC70 values obtained for a test compound in the individual cell lines is given in relation to the geometric mean IC50 or IC70 value, obtained over all PDX models tested. The individual IC values range from 1/32-fold geometric mean IC (corresponding to very potent compound activity or high tumor sensitivity) to 32-fold geometric mean IC (corresponding to lack of compound activity or tumor resistance). The heatmap presentation, therefore, represents an antiproliferative “fingerprint” profile of a test compound.

Sequence of CDK7 CyclinH (P50613 whole entry): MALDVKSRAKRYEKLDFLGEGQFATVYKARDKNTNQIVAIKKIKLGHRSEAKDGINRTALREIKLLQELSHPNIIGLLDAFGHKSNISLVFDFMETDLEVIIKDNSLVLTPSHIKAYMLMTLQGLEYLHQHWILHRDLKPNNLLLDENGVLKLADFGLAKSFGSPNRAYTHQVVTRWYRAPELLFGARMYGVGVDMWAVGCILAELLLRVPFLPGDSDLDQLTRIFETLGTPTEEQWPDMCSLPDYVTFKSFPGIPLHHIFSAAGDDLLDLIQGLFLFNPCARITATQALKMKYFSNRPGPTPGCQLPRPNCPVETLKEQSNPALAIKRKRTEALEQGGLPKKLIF
Sequence of CDK7 CyclinH (P51946 whole entry partner): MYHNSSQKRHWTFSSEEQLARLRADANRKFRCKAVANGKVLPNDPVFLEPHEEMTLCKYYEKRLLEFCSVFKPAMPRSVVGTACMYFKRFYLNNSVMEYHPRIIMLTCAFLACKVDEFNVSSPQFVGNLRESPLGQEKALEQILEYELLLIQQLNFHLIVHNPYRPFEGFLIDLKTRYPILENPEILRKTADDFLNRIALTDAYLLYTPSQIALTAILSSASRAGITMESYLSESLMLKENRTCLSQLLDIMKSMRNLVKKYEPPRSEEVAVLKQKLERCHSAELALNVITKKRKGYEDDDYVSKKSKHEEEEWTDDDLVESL
Sequence of CDK7 CyclinH (P51948 whole entry partner): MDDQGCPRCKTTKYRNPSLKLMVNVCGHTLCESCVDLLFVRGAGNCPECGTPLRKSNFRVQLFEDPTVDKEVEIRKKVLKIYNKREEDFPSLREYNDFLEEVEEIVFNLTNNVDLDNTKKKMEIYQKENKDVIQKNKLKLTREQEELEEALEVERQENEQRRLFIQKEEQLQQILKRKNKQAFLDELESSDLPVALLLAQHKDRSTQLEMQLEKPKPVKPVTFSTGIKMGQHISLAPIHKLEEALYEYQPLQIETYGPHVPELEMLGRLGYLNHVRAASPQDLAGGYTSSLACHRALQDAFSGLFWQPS

Compound | pIC50 (CDK2-CYCLINA) | pIC50 (CDK7 CyclinH) | pIC50 (CXF COLO 205) | pIC50 (CXF HT-29) | pIC50 (LEXFAM MV4-11) | pIC50 (LEXFCM K-562) | pIC50 (LIXAH SNU-398) | pIC50 (LIXFH HEP-3B) | pIC50 (LIXFH Hep G2) | pIC50 (LXFA NCl-H1975) | pIC50 (LXFE Calu-1) | pIC50 (LXFL NCl-H1299) | pIC50 (MAXFLB T47D (ER+)) | pIC50 (MAXFTN BT-549) | pIC50 (MAXFTN MDA-MB-231 (ER−)) | pIC50 (MAXFTN MDA-MB-453) | pIC50 (MEXF A-375) | pIC50 (MEXF A2058) | pIC50 (MEXF M14) | pIC50 (MEXF MDA-MB-435) | further results
CN(C)[C@H]1CCN(c2ccc(Nc3ncc4c(n3)N(C3CCCC3)C(=O)[C@]3(CCNC3=O)C4)nc2)C1 [Example D178, (S)-8-cyclopentyl-2-((5-((S)-3-(dimethylamino)pyrrolidin-1-yl)pyridin-2-yl)amino)-5,8-dihydro-7H-spiro[pyrido[2,3-d]pyrimidine-6,3′-pyrrolidine]-2′,7-dione] | 6.90 | 5.95 | 5.21 | 4.50 | ≥ 8.00 | 4.12 | 6.22 | 4.17 | 5.27 | 4.78 | 4.10 | 4.52 | 4.34 | 4.78 | 5.61 | 5.70 | 6.11 | 4.22 | 4.61 | 4.74 | pIC50 (MEXF WM-266-4): 4.13; pIC50 (OVXF SK-OV-3): 4.11; pIC50 (PAXF BxPC-3): 4.92; pIC50 (PAXF MIA-Pa-Ca-2): 4.18; pIC50 (PRXF VCap): 4.68; pIC50 (UXF EFE-184): 4.65; pIC50 (all cell lines tested): 4.78
CN(C)CCOc1ccc(Nc2ncc3c(n2)N(C2CCCC2)C(=O)[C@]2(CCNC2=O)C3)cc1 [Example D179, (S)-8-cyclopentyl-2-((4-(2-(dimethylamino)ethoxy)phenyl)amino)-5,8-dihydro-7H-spiro[pyrido[2,3-d]pyrimidine-6,3′-pyrrolidine]-2′,7-dione] | 7.17 | 6.49 | 7.00 | 6.25 | ≥ 8.00 | 6.45 | 7.60 | 6.77 | 7.43 | 7.54 | 5.90 | 6.45 | 6.08 | 6.60 | 7.28 | 7.24 | 7.21 | 6.76 | 6.57 | 6.99 | pIC50 (MEXF WM-266-4): 6.57; pIC50 (OVXF SK-OV-3): 6.11; pIC50 (PAXF BxPC-3): 6.94; pIC50 (PAXF MIA-Pa-Ca-2): 6.79; pIC50 (PRXF VCap): 7.43; pIC50 (UXF EFE-184): 6.61; pIC50 (all cell lines tested): 6.69
